In EP3572411A1, “THIAZOLE DERIVATIVES AS METALLO-BETA-LACTAMASE INHIBITORS” (Antabio SAS, priority 2018, dated 2019):

Tests used:
[1] = target: T1, IMP-1 (Serratia marcescens, UniProt P52699); experiment: In vitro enzyme inhibition assay (imipenem hydrolysis, UV 299 nm); format: biochemical; settings: purified enzyme, 10mM HEPES pH 7.5, Imipenem 300µM; mean Ki from IC50 by Cheng-Prusoff; read-out: Ki (µM) IMP-1
T1 construct: VIM-1; VIM-2
Method: (§1) In vitro enzyme inhibition assays: Enzyme inhibition assays are performed using purified MBL enzymes (NDM-1; VIM-1; VIM-2; IMP-1) in 10mM HEPES buffer pH 7.5 in 96-well microtiter plates. Imipenem (300µM) is used as substrates and its hydrolysis is followed at UV 299 nm during 10mn every 30 seconds using a Perkin Elmer Envision UV fluorescence plate reader. Hydrolysis rate data in presence of a range of inhibitors are analysed using Dotmatics database software and calculated IC50 values are converted to Ki values using the Cheng-Prusoff equation. Ki = IC50 / (1+([S]/Km) and where the Km values for […] are 70 µM, 1.5 µM, 9 µM and 25 µM respectively. Compound dilution is performed in DMSO. Mean Ki values from multiple experiments are presented. Results are shown in Table 1.

[2] = target: T2, NDM-1 (Klebsiella pneumoniae, UniProt C7C422); experiment: as above; format: biochemical; settings: purified enzyme, 10mM HEPES pH 7.5, Imipenem 300µM; mean Ki from IC50 by Cheng-Prusoff; read-out: Ki (µM) NDM-1
T2 construct: VIM-1; VIM-2
T2 sequence (C7C422 29-270, looked up): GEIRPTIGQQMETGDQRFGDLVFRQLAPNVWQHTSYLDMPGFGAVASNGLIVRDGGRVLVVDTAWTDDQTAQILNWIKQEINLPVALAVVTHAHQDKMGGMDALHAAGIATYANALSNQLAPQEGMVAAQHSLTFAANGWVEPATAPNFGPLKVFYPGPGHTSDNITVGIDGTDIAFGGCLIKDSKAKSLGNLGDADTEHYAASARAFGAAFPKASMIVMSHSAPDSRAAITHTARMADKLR
Method: as §1

[3] = target: T3, VIM-1 (Pseudomonas aeruginosa, UniProt A0A0F7KYQ8); experiment: as above; format: biochemical; settings: purified enzyme, 10mM HEPES pH 7.5, Imipenem 300µM; mean Ki from IC50 by Cheng-Prusoff; read-out: Ki (µM) VIM-1
T3 construct: VIM-1; VIM-2; IMP-1)
Method: as §1

[4] = target: T4, VIM-2 (Escherichia coli, UniProt Q5U7L7); experiment: as above; format: biochemical; settings: purified enzyme, 10mM HEPES pH 7.5, Imipenem 300µM; mean Ki from IC50 by Cheng-Prusoff; read-out: Ki (µM) VIM-2
T4 construct: VIM-1; VIM-2
Method: as §1

[5] = tested on: NTBC018 (C. freundii strain expressing VIM-2); experiment: Antimicrobial susceptibility testing (broth micro-dilution, Meropenem potentiation); format: cell-based; settings: MIC of Meropenem with compound at constant 8 µg/mL; CAMHB, 18-20 hours, 37°C
Method: (§2) Antimicrobial susceptibility testing: The operation is carried out using the 'broth micro-dilution method' according to the protocols M07-A8 established by the Clinical Laboratory Standards Institute (CLSI). Serial dilutions of the β-lactam antibiotic (Meropenem) are prepared in 96-well plates in cation-adjusted Mueller-Hinton broth (CAMHB); the concentration range is defined from 0.03 mg/L to 512 mg/L. The compounds are added at a constant concentration of 8 µg/mL. A bacterial inoculum of each strain (clinical isolates) is adjusted to a 0.5 McFarland turbidity standard in physiologic serum (0.9 % NaCl), then diluted 1:100 in CAMHB and added to each well to give a final bacterial cell number of 5x10^5 CFU/well. After incubation for 18-20 hours in a heating chamber at 37°C, the growth inhibition is evaluated by the absence of any bacterial development.
(§3) The compounds of Table 2 are added at a constant concentration of 8 µg/mL. The clinical strains used in these potentiation experiments are NTBC020 (E. coli strain expressing NDM-1, TEM-1 and CTX-M-15); NTBC035-2 (K. pneumoniae strain expressing NDM-1, CMY-4 and SHV-11); NTBC104-1 (K. pneumoniae strain expressing NDM-1 and SHV-11); NTBC123 (K. pneumoniae strain expressing NDM-1); NTBC018 (C. freundii strain expressing VIM-2); NTBC024 (K. pneumoniae strain expressing VIM-19, TEM-1 and CTX-M-3); NTBC042 (E. coli strain expressing VIM-1, TEM-1 , CTX-M-15, SHV-12); NTBC055 (E. Coli strain expressing VIM-1); NTBC062 (K. pneumoniae strain expressing IMP-1 and TEM-1) and NTBC039 (K. oxytoca strain expressing IMP-28). • For NDM-1 the Ki values of < 0.05 µM are designated (A); Ki values of 0.05 - 0.2 µM are designated (B); Ki values of 0.2 - 0.4 µM are designated (C). • For VIM-1 the Ki values of < 0.2 µM are designated (A); Ki values of 0.2 - 0.5 µM are designated (B); Ki values of 0.5 - 0.8 µM are designated (C). • For VIM-2 the Ki values of < 0.02 µM are designated (A); Ki values of 0.02 - 0.05 µM are designated (B); Ki values of 0.05 - 0.2 µM are designated (C). • For IMP-1 the Ki values of < 0.5 µM are designated (A); Ki values of 0.5 - 1 µM are designated (B); Ki values of 1 - 8 µM are designated (C). • MIC values of < 1 µg/mL are designated (A); MIC values of 1 - 2 µg/mL are designated (B); • MIC values of 2 - 128 µg/mL are designated (C). Table 1. Ki results

[6] = tested on: NTBC020 (E. coli strain expressing NDM-1, TEM-1 and CTX-M-15); experiment: as above; format: cell-based; settings: MIC of Meropenem with compound at constant 8 µg/mL; CAMHB, 18-20 hours, 37°C
Method: as §2, §3

[7] = tested on: NTBC024 (K. pneumoniae strain expressing VIM-19, TEM-1 and CTX-M-3); experiment: as above; format: cell-based; settings: MIC of Meropenem with compound at constant 8 µg/mL; CAMHB, 18-20 hours, 37°C
Method: as §2, §3

[8] = tested on: NTBC035-2 (K. pneumoniae strain expressing NDM-1, CMY-4 and SHV-11); experiment: as above; format: cell-based; settings: MIC of Meropenem with compound at constant 8 µg/mL; CAMHB, 18-20 hours, 37°C
Method: as §2, §3

[9] = tested on: NTBC039 (K. oxytoca strain expressing IMP-28); experiment: as above; format: cell-based; settings: MIC of Meropenem with compound at constant 8 µg/mL; CAMHB, 18-20 hours, 37°C
Method: as §2, §3

[10] = tested on: NTBC042 (E. coli strain expressing VIM-1, TEM-1 , CTX-M-15, SHV-12); experiment: as above; format: cell-based; settings: MIC of Meropenem with compound at constant 8 µg/mL; CAMHB, 18-20 hours, 37°C
Method: as §2, §3

[11] = tested on: NTBC055 (E. Coli strain expressing VIM-1); experiment: as above; format: cell-based; settings: MIC of Meropenem with compound at constant 8 µg/mL; CAMHB, 18-20 hours, 37°C
Method: as §2, §3

[12] = tested on: NTBC062 (K. pneumoniae strain expressing IMP-1 and TEM-1); experiment: as above; format: cell-based; settings: MIC of Meropenem with compound at constant 8 µg/mL; CAMHB, 18-20 hours, 37°C
Method: as §2, §3

[13] = tested on: NTBC104-1 (K. pneumoniae strain expressing NDM-1 and SHV-11); experiment: as above; format: cell-based; settings: MIC of Meropenem with compound at constant 8 µg/mL; CAMHB, 18-20 hours, 37°C
Method: as §2, §3

[14] = tested on: NTBC123 (K. pneumoniae strain expressing NDM-1); experiment: as above; format: cell-based; settings: MIC of Meropenem with compound at constant 8 µg/mL; CAMHB, 18-20 hours, 37°C
Method: as §2, §3

T1 sequence (P52699 19-246, looked up, species assumed): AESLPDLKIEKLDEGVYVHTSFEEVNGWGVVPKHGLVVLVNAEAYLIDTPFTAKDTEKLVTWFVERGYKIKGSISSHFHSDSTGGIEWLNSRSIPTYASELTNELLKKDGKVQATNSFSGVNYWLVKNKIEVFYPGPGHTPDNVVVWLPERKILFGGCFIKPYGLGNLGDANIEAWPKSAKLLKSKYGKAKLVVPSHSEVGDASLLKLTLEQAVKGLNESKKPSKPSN

| Substance | Ki [1] [µM] | Ki [2] [µM] | Ki [3] [µM] | Ki [4] [µM] | MIC Strain NTBC018 [5] | MIC Strain NTBC020 [6] | MIC Strain NTBC024 [7] | MIC Strain NTBC035-2 [8] | MIC Strain NTBC039 [9] | MIC Strain NTBC042 [10] | MIC Strain NTBC055 [11] | MIC Strain NTBC062 [12] | MIC Strain NTBC104-1 [13] | MIC Strain NTBC123 [14] |
| --- | --- | --- | --- | --- | --- | --- | --- | --- | --- | --- | --- | --- | --- | --- |
| 3-(3-carbamimidamidopropyl)-1-[({4-[(4-carboxy-1,3-thiazol-5-yl)sulfamoyl]-2-fluorophenyl}carbamoyl)methyl]-1H-imidazol-3-ium [Example 17] | 1 to 8 | < 0.05 | < 0.2 | < 0.02 | (A) (MIC values of < 1 µg/mL are designated (A)) | (C) (MIC values of 2 - 128 µg/mL are designated (C)) | (B) (MIC values of 1 - 2 µg/mL are designated (B)) | (B) (MIC values of 1 - 2 µg/mL are designated (B)) | (C) (MIC values of 2 - 128 µg/mL are designated (C)) | d(B) (MIC values of 1 - 2 µg/mL are designated (B)) | (B) (MIC values of 1 - 2 µg/mL are designated (B)) | (B) (MIC values of 1 - 2 µg/mL are designated (B)) | (C) (MIC values of 2 - 128 µg/mL are designated (C)) | (C) (MIC values of 2 - 128 µg/mL are designated (C)) |
| 3-[({4-[(4-carboxy-1,3-thiazol-5-yl)sulfamoyl]-2-fluorophenyl}carbamoyl)methyl]-1-[2-(trimethylammonio)ethyl]imidazol-1-ium [Example 21] | 1 to 8 | < 0.05 | < 0.2 | < 0.02 | (B) (MIC values of 1 - 2 µg/mL are designated (B)) | (C) (MIC values of 2 - 128 µg/mL are designated (C)) | (C) (MIC values of 2 - 128 µg/mL are designated (C)) | (C) (MIC values of 2 - 128 µg/mL are designated (C)) | (B) (MIC values of 1 - 2 µg/mL are designated (B)) | (B) (MIC values of 1 - 2 µg/mL are designated (B)) | (B) (MIC values of 1 - 2 µg/mL are designated (B)) | (B) (MIC values of 1 - 2 µg/mL are designated (B)) | (B) (MIC values of 1 - 2 µg/mL are designated (B)) | (C) (MIC values of 2 - 128 µg/mL are designated (C)) |
